The source made the active and inactive calls. The rule behind the calls is not given here.
Columns and labels:
[1] = target: Serine/threonine-protein kinase AKT (Homo sapiens) (UniProt P31751+Q9Y243+P31749); experiment: Inhibition of PM2.5 induced Akt phosphorylation upregulation in human A549 cells at 10 uM by Western blot analysis relative to control; assay type: cell-based
[2] = test system: A549; experiment: Inhibition of PM2.5 induced PI3K upregulation in human A549 cells at 10 uM by Western blot analysis relative to control; assay type: functional
[3] = test system: A549; experiment: Inhibition of PM2.5 induced PI3K expression in human A549 cells at 10 uM by qRT-PCR analysis; assay type: functional, cell-based
[4] = test system: A549; experiment: Inhibition of PM2.5 induced Akt phosphorylation in human A549 cells at 10 uM […]; assay type: functional, cell-based
[5] = test system: A549; experiment: Inhibition of PM2.5 induced E-cadherin downregulation in human A549 cells at 10 uM by Western blot analysis; assay type: functional, cell-based
[6] = test system: A549; experiment: Downregulation of PM2.5 induced vimentin expression in human A549 cells at 10 uM by Western blot analysis; assay type: functional, cell-based
[7] = test system: A549; experiment: Downregulation of PM2.5 induced Snail expression in human A549 cells; assay type: functional, cell-based
[8] = test system: A549; experiment: Downregulation of PM2.5 induced Slug expression in human A549 cells; assay type: functional, cell-based

Chain of Serine/threonine-protein kinase AKT (Homo sapiens) (P31749 whole entry, looked up): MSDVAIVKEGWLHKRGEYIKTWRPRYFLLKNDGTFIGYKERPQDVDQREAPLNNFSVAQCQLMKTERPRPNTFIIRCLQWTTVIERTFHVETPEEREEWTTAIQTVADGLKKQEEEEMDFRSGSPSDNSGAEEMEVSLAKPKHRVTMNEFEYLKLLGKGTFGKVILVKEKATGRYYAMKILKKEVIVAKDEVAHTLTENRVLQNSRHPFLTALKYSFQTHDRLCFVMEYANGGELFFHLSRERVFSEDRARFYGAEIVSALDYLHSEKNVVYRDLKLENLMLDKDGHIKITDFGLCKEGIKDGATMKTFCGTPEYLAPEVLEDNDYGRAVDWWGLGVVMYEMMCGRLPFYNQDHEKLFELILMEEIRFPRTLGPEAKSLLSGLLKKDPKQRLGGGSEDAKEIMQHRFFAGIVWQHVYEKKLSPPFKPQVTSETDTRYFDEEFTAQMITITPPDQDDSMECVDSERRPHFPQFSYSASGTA
Chain of Serine/threonine-protein kinase AKT (Homo sapiens) (P31751 whole entry, looked up): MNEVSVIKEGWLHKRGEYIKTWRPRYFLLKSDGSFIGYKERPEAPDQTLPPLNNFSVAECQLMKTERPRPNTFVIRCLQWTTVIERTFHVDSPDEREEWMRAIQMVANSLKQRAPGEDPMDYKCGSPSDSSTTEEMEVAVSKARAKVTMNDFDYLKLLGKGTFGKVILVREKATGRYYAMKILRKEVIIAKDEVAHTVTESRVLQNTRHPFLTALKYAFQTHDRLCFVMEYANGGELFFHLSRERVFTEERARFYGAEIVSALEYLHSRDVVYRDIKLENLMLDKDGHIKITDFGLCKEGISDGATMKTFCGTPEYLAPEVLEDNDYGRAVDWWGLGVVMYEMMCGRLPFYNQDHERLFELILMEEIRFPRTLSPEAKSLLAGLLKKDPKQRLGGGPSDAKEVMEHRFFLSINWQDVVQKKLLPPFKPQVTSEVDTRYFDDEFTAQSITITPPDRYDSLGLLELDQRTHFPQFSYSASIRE
Chain of Serine/threonine-protein kinase AKT (Homo sapiens) (Q9Y243 whole entry, looked up): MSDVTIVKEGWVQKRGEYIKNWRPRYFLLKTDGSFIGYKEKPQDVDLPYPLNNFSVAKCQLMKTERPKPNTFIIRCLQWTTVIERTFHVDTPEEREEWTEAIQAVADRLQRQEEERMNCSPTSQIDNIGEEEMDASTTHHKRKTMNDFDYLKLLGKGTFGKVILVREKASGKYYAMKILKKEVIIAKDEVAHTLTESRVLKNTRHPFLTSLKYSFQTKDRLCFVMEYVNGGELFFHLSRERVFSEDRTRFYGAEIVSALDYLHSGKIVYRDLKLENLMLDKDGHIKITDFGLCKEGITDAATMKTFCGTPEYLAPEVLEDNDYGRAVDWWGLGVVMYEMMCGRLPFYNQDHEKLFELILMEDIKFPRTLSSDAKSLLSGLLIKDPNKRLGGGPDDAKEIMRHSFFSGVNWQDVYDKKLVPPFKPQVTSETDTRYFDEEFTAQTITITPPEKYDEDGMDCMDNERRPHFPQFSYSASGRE

In the case of `O=c1cc(N2CCOCC2)oc2c(-c3ccccc3)cccc12` [LY-294002], the inhibition [1] is reported as 15%, the inhibition at 10 µM [2] is reported as 84.3% and the inhibition [3] is reported as “Active”. For the same compound, the inhibition [4] was “Active”, the inhibition [5] was “Active” and the Activity [6] was “Active”. The Activity [7] was “Active” and the Activity [8] was “Active”.
